What was measured:
KRAS WT = target: T1, KRAS WT (Homo sapiens, UniProt P01116); assay: HTRF nucleotide exchange assay, KRAS WT; type: biochemical; conditions: class symbols; for IC50: HTRF nucleotide exchange assay (NEA)
T1 construct: aa1-188 KRAS WT
Experimental: (§1) HTRF Nucleotide Exchange Assay Method
(§2) The capacity of compounds to bind KRAS G12D, other KRAS mutants and wildtype RAS isoforms was quantified using a HTRF nucleotide exchange assay. Recombinant human RAS protein (2 nM; aa1-188 KRAS WT, HRAS WT, NRAS WT, or KRAS containing the G12D, G13D or Q61H amino acid substitutions, or 4 nM KRAS; aa1-188 containing the G12V, G12C, G12A or G12S amino acid substitution, an N-terminal 6× His-tag and leader sequence), and 2 nM Europium-labeled anti-6× His antibody were mixed in assay buffer (10 mM HEPES pH 7.3, 150 mM NaCl, 5 mM MgCl2, 0.05% BSA, 0.0025% NP-40 and 100 mM KF) with various concentrations of compound in a 384-well plate and a volume of 5 μL. After a 60-minute incubation at room temperature, 5 μl of 200 nM EDA-GTP-DY647P1 (diluted in assay buffer) was added to the plate. Following 30-minute incubation at room temperature, time-resolved fluorescence was measured on a PerkinElmer Envision plate reader. DMSO (0.3%) and unlabeled GDP (1 μM) or equivalent tool compound were used to generate the Max and Min assay signals, respectively. Data was analysed using a four-parameter logistic model to calculate IC50 values, with at least two independent replicates were performed for each compound. The results are presented as IC50s in Table 29 where “A” corresponds to an IC50 ≤10 nM, “B” to an IC50 >10 nM up to 100 nM, “C” is >100 nM up to 10 μM, “D” represents <49% inhibition at 10 μM and ND=not determined: […]

KRAS G12D = target: T2, KRAS G12D (Homo sapiens, UniProt P01116, G12D); assay: HTRF nucleotide exchange assay, KRAS G12D; type: biochemical; conditions: class symbols; for IC50: HTRF nucleotide exchange assay (NEA)
T2 construct: aa1-188 KRAS WT, HRAS WT, NRAS WT, or KRAS containing the G12D
Experimental: as §1, §2

| SMILES | IC50 (KRAS WT) | IC50 (KRAS G12D) | KRAS^WT NEA (KRAS WT) | KRAS^G12D NEA (KRAS G12D) |
| --- | --- | --- | --- | --- |
| CCc1c(F)ccc2cc(O)cc(-c3c(F)c4nc(OCC5(CN6CCC(O)CC6)CC5)nc(N5CCOCC(C)(O)C5)c4c4cn(C)nc34)c12 (stereo not drawn) [Example 213, 4-[4-(8-ethyl-7-fluoro-3-hydroxy-1-naphthyl)-5-fluoro-7-[[1-[(4-hydroxy-1-piperidyl)methyl]cyclopropyl]methoxy]-2-methyl-pyrazolo[4,3-f]quinazolin-9-yl]-6-methyl-1,4-oxazepan-6-ol] | ≤ 10 nM | ≤ 10 nM |  |  |
| CCc1c(F)ccc2cc(O)cc(-c3c(F)c4nc(OC[C@@]56CCCN5C[C@H](F)C6)nc(N5CCCn6nc(C(=O)N(C)C)cc6C5)c4c4cn(C)nc34)c12 [Example 87, 5-[4-(8-ethyl-7-fluoro-3-hydroxy-1-naphthyl)-5-fluoro-2-methyl-7-[[(2R,8S)-2-fluoro-1,2,3,5,6,7-hexahydropyrrolizin-8-yl]methoxy]pyrazolo[4,3-f]quinazolin-9-yl]-N,N-dimethyl-4,6,7,8-tetrahydropyrazolo[1,5-a][1,4]diazepine-2-carboxamide] | ≤ 10 nM | ≤ 10 nM |  |  |
| CCc1c(F)ccc2cc(O)cc(-c3c(F)c4nc(OC[C@@]56CCCN5C[C@H](F)C6)nc(N5CCCn6nc(C(=O)N7CCCC7)cc6C5)c4c4cn(C)nc34)c12 [Example 197, [5-[4-(8-ethyl-7-fluoro-3-hydroxy-1-naphthyl)-5-fluoro-7-[[(2R,8S)-2-fluoro-1,2,3,5,6,7-hexahydropyrrolizin-8-yl]methoxy]-2-methyl-pyrazolo[4,3-f]quinazolin-9-yl]-4,6,7,8-tetrahydropyrazolo[1,5-a][1,4]diazepin-2-yl]-pyrrolidin-1-yl-methanone] | ≤ 10 nM | ≤ 10 nM |  |  |
| CCc1c(F)ccc2cc(O)cc(-c3cc4nc(OCC5CCN(C)CC5)nc(N5CCCOCC5)c4c4cn(C)nc34)c12 [Example 31, 5-ethyl-6-fluoro-4-[2-methyl-7-[(1-methyl-4-piperidyl)methoxy]-9-(1,4-oxazepan-4-yl)pyrazolo[4,3-f]quinazolin-4-yl]naphthalen-2-ol] | 100 to 10000 nM | 100 to 10000 nM |  |  |
| CCc1c(F)ccc2cc(O)cc(-c3cc4nc(OC[C@@]56CCCN5C[C@H](F)C6)nc(N5CCOC6(COC6)C5)c4c4cn(C)nc34)c12 [Example 199, 4-[9-(2,5-dioxa-8-azaspiro[3.5]nonan-8-yl)-2-methyl-7-[[(2R,8S)-2-fluoro-1,2,3,5,6,7-hexahydropyrrolizin-8-yl]methoxy]pyrazolo[4,3-f]quinazolin-4-yl]-5-ethyl-6-fluoro-naphthalen-2-ol] | 10 to 100 nM | 10 to 100 nM |  |  |
| CN(C)C(=O)c1cc2n(n1)CCCN(c1nc(OC[C@@]34CCCN3C[C@H](F)C4)nc3cc(-c4cccc5[nH]nc(C#N)c45)c4nn(C)cc4c13)C2 [Example 83, 5-[4-(3-cyano-1H-indazol-4-yl)-2-methyl-7-[[(2R,8S)-2-fluoro-1,2,3,5,6,7-hexahydropyrrolizin-8-yl]methoxy]pyrazolo[4,3-f]quinazolin-9-yl]-N,N-dimethyl-4,6,7,8-tetrahydropyrazolo[1,5-a][1,4]diazepine-2-carboxamide] |  |  | D (<49% inhibition at 10 μM) | D (<49% inhibition at 10 μM) |
| CCc1c(F)ccc2cc(O)cc(-c3cc4nc(OCC56CCCN5CCC6)nc(N5CCOCC(C)(O)C5)c4c4cn(C)nc34)c12 (stereo not drawn) [Example 26, 4-[4-(8-ethyl-7-fluoro-3-hydroxy-1-naphthyl)-7-(1,2,3,5,6,7-hexahydropyrrolizin-8-ylmethoxy)-2-methyl-pyrazolo[4,3-f]quinazolin-9-yl]-6-methyl-1,4-oxazepan-6-ol] | ≤ 10 nM | ≤ 10 nM |  |  |
| CCc1c(F)ccc2cc(O)cc(-c3c(F)c4nc(OCC5(C#N)CCOC5)nc(N5CCCn6nc(C(=O)N(C)C)cc6C5)c4c4cn(C)nc34)c12 (stereo not drawn) [Example 207, 5-[7-[(3-cyanotetrahydrofuran-3-yl)methoxy]-4-(8-ethyl-7-fluoro-3-hydroxy-1-naphthyl)-5-fluoro-2-methyl-pyrazolo[4,3-f]quinazolin-9-yl]-N,N-dimethyl-4,6,7,8-tetrahydropyrazolo[1,5-a][1,4]diazepine-2-carboxamide] | 10 to 100 nM | ≤ 10 nM |  |  |
| CCc1c(F)ccc2cc(O)cc(-c3cc4nc(OC[C@@]56CCCN5C[C@H](F)C6)nc(N5CCOCC(O)C5)c4c4cn(C)nc34)c12 (stereo partly drawn) [Example 120, 4-[4-(8-ethyl-7-fluoro-3-hydroxy-1-naphthyl)-2-methyl-7-[[(2R,8S)-2-fluoro-1,2,3,5,6,7-hexahydropyrrolizin-8-yl]methoxy]pyrazolo[4,3-f]quinazolin-9-yl]-1,4-oxazepan-6-ol] | ≤ 10 nM | ≤ 10 nM |  |  |
| CCc1c(F)ccc2cc(O)cc(-c3c(F)c4nc(OCC5(CF)COC5)nc(N5CC6CCC(C5)N6)c4c4cn(C)nc34)c12 [Example 167, 4-[9-(3,8-diazabicyclo[3.2.1]octan-3-yl)-5-fluoro-7-[[3-(fluoromethyl)oxetan-3-yl]methoxy]-2-methyl-pyrazolo[4,3-f]quinazolin-4-yl]-5-ethyl-6-fluoro-naphthalen-2-ol] | 100 to 10000 nM | ≤ 10 nM |  |  |
| CCc1c(F)ccc2cc(O)cc(-c3cc4nc(OC[C@@]56CCCN5C[C@H](F)C6)nc(N5CCCC(O)CC5)c4c4cn(C)nc34)c12 (stereo partly drawn) [Example 42, 1-[4-(8-ethyl-7-fluoro-3-hydroxy-1-naphthyl)-2-methyl-7-[[(2R,8S)-2-fluoro-1,2,3,5,6,7-hexahydropyrrolizin-8-yl]methoxy]pyrazolo[4,3-f]quinazolin-9-yl]azepan-4-ol] | 10 to 100 nM | 10 to 100 nM |  |  |
| CCc1c(F)ccc2cc(O)cc(-c3cc4nc(OCC5(CN6CCC[C@H]6C(F)(F)F)CC5)nc(N5CCCn6nc(C(=O)N(C)C)cc6C5)c4c4cn(C)nc34)c12 [Example 71] |  |  | D (<49% inhibition at 10 μM) | D (<49% inhibition at 10 μM) |
| CCc1c(F)ccc2cc(O)cc(-c3cc4nc(OC[C@@]56CCCN5C[C@H](F)C6)nc(N5CCC(C)(O)C5)c4c4cn(C)nc34)c12 (stereo partly drawn) [Example 116, 1-[4-(8-ethyl-7-fluoro-3-hydroxy-1-naphthyl)-2-methyl-7-[[(2R,8S)-2-fluoro-1,2,3,5,6,7-hexahydropyrrolizin-8-yl]methoxy]pyrazolo[4,3-f]quinazolin-9-yl]-3-methyl-pyrrolidin-3-ol] | 10 to 100 nM | 10 to 100 nM |  |  |
| CCc1c(F)ccc2cc(O)cc(-c3cc4nc(OC[C@@]56CCCN5C[C@H](F)C6)nc(N5CCOC[C@@](C)(O)C5)c4c4cn(C)nc34)c12 [Example 40, (6S)-4-[4-(8-ethyl-7-fluoro-3-hydroxy-1-naphthyl)-2-methyl-7-[[(2R,8S)-2-fluoro-1,2,3,5,6,7-hexahydropyrrolizin-8-yl]methoxy]pyrazolo[4,3-f]quinazolin-9-yl]-6-methyl-1,4-oxazepan-6-ol] | ≤ 10 nM | ≤ 10 nM |  |  |
| CCc1c(F)ccc2cc(O)cc(-c3c(C)c4nc(OCC5(C)C[C@@H](O)CN5C)nc(N5CCOCC(C)(O)C5)c4c4cn(C)nc34)c12 (stereo partly drawn) [Example 141, 4-[4-(8-ethyl-7-fluoro-3-hydroxy-1-naphthyl)-2,5-dimethyl-7-[[(4R)-4-hydroxy-1,2-dimethyl-pyrrolidin-2-yl]methoxy]pyrazolo[4,3-f]quinazolin-9-yl]-6-methyl-1,4-oxazepan-6-ol] | ≤ 10 nM | ≤ 10 nM |  |  |
